The record followed here is EP0378671B1, “INSULINOMIMETIC AND INSULIN RECEPTOR BINDING SITE PEPTIDES” (CITY OF HOPE, priority 1988, dated 1997).

This assay concerns isolated rat adipocytes. The assay is described as follows: Lipogenesis assay: incorporation of 3-[3H] glucose into lipids. In kind it is cell-based. Conditions: 2 hours at 37°C, compared with insulin and basal (Figure 10). The method, then: The lipogenesis assay was conducted according to Smal, et al., J.Biol.Chem. 262:11071-11079 (1987). Dissected epididymal and retroperitoneal fat pads were digested under vigorous shaking at 37°C for 30 min with collagenase (1.0 mg/ml) in Krebs-Ringer-Heps (KRH) buffer, pH 7.4, 35 mg/ml dialyzed bovine serum albumin (BSA), 0.27 mM glucose. After filtration on cheesecloth and 4 washes in KRH with 10 mg/ml BSA, the adipocytes were preincubated for 4 hours at 37°C in the same buffer.
The lipogenesis assay was performed in triplicate in 6 ml polyethylene vials by adding successively 400 µl of adipocyte suspension (80 X l0^3 cells/ml), 50 µl of KRH buffer pH 7.4 (1% BSA, 0.27 mM glucose) without hormone (basal lipogenesis) or with insulin or receptor-derived peptides at the indicated concentrations, and 50 µl D-[3-^3H]-glucose in a total volume of 0.5 ml. The vials were incubated 2 hours at 37°C under gentle shaking. […]

Consider “insulin receptor sequence 81-91: peptide with insulin receptor sequence 81-91 (LIMITDYLLLF; UniProt P06213 81-91, looked up, fragment)”, for which the stimulation of lipogenesis result was “totally inactive”. The stimulation of lipogenesis result (listed as insulin receptor sequence 81 to 91) is recorded as “not stimulated above basal”.
